Data published in US4822606A, “Immunosuppressive synthetic peptides and analogs thereof based on retroviral envelope sequences” (Duke University, priority 1986, dated 1989).
Ends that are not written are not given here.

Assays:
[1] = system: human lymphocytes stimulated with Con A; test: Human lymphocyte proliferative response to Con A; format: cell-based; conditions: coupled to BSA
Method: One hundred μl of RPMI containing 2×10^5 lymphocytes was added to each well of a 96 well tissue culture plate. […] The cultures were incubated for 72 hr at 37° C. in 5% humidified CO2, pulsed with ^3 Hthymidine (0.,5 μCi/well, 4h.) and the incorporated radioactivity determined as described above. The concentration of OKT3 antibody used was previously determined to give 75-100% of a maximal response.

[2] = system: human lymphocytes stimulated with Con A; test: Human lymphocyte proliferative response to Con A; format: cell-based; conditions: addition 24 hr. after Con A; coupled to BSA
[3] = system: lymphocytes from two non-related individuals; test: Human two-way mixed leukocyte culture (MLC); format: cell-based; conditions: four experiments, final 24 h of 6 day culture, coupled to BSA
Method: Fifty μl of RPMI containing 1×10^5 lymphocytes from each of two non-related individuals was added to each well of a 96 well tissue culture plate. An additional 50 μl of RPMI was added and cultures were incubated at 37° C. in humidified 5% CO2 for 5 days. Fifty μl of RPMI containing either peptide or no addition was added for an additional 24 hr. During the final 4 hr of incubation each well was incubated with 25 μl of RPMI containing 0.5 μCi of ^3 H-thymidine and incorporated radionucleotide determined as above.

NIH/3T3 fibroblasts = test: Fibroblast proliferation, NIH/3T3; format: cell-based; conditions: 2 or 3 days, dilutions 1:20, 1:40, 1:80
Method: (§1) CKS-17 was added at concentrations of 1:20, 1:40 and 1:80 to monolayers of Balb/3T3 or NIH/3T3 fibroblasts (ca. 1/3 confluent) in 96 well tissue culture plates. The cells were grown for an addition 2-3 days and pulsed with 1.0 μCi ^3 H-thymidine./well for the final 24 hours. The culture media was removed and the cells washed once before disruption with 0.5 ml of 0.5 N NaOH. The radiolabeled nucleic acids were then harvested onto glass fibe filters as described.

[4] = system: T4^+ and T8^+ lymphocytes, B cells, NK cells and phagocytes; test: Preliminary double-labeling studies; format: binding
human lymphocytes = test: Binding of [^125 I]-CKS-17-BSA to cultured human lymphocytes; conditions: >1000 fold excess of unlabeled BSA conjugate
Method: Human mononuclear cells were stimulated for 3 days with PHA, washed free of lectin, cultured for 10 days with 10% of a human IL-2 preparation (electronucleonics) washed and resuspended to 5×10^6 cells/ml in phosphate-buffered-saline, pH 7.2 (PBS) containing 0.1% BSA. […] Binding was terminated and unbounded [^125 I]-CKS-17-BSA removed by rapid (30 sec.) centrifugation of the cells through oil. The cell associated radioactivity was measured using a gamma radiation counter.

Balb/3T3 fibroblasts = test: Fibroblast proliferation, Balb/3T3; format: cell-based; conditions: 2 or 3 days, dilutions 1:20, 1:40, 1:80
Method: as §1

Immunization of rabbits = format: in vivo, rabbit
[5] = system: Balb/c and NIH/Swiss splenic lymphocytes; test: Murine two-way mixed leukocyte culture (MLC); format: cell-based; conditions: coupled to BSA; for average inhibition of murine MLC response (mean±SEM): 3 day MLC, three experiments
Method: Fifty μl RPMI containing 1×10^5 Balb/c splenic lymphocytes and 50 μl containing 1×10^5 NIH/Swiss splenic lymphocytes were added to each well of a 96 well tissue culture plate. An additional 50 μl of RPMI containing peptide or no additives was added to each well and the cultures incubated for 3 to 5 days at 37° C in humidified 5% CO^2 Cultures were pulsed for 4 hr with 0.5 μCi of ^3 H-thymidine in 50 μl of RPMI before harvesting onto glass fiber filters.

murine CTLL-2 cells = test: Murine cytotoxic T lymphocyte (CTLL-2) IL-2 dependent proliferation assay; format: cell-based; conditions: for average inhibition of CTLL-2 cell proliferation: 24 experiments; for ^3H-TdR incorporation, CPM ± SD of quadruplicate samples: 24 h;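 as to all read-outs here: CTLL-2 cells, 4 x 10^3 per well in 96-well plates with RPMI plus 6% FBS, proliferation read as cell-bound radioactivity counted by liquid scintillation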
Method: Fifty μ1 of RPMI (6% FBS, 0% IL-2) containing 4 x 10^3 CTLL-2 cells was added to each well of a 96 well tissue culture plate (Falcon, Oxnard, CA). To each well was then added 50 μl of RPMI 1640 containing 3% human IL-2 50 μl of either RPMI or RPMI containing synthetic peptides. Cultures were then incubated for 24 hours at 37° C. in humidified 5% CO^2 Fifty μl of RPMI containing 1 μCi of ^3 H-thymidine (6.7 Ci/mmole; New England Nuclear, Boston, MA) was added to each well for the final 4 hours of cultures. Cells were collected by filtration onto glass fiber filters and incorporated radioactivity determined by liquid scintillation spectrophotometry.

human monocytes = test: Monocyte superoxide anion (O2^-) release; format: cell-based; conditions: WGA stimulated, peptide coupled to BSA, mean ± SE
Method: Monocytes were aliquoted into 12×75 mm polypropylene tubes (Falcon, Oxnard, CA) and incubated at 37° C. with test materials for twenty minutes. Cytochalasin E was then added to give a final concentration of 5 μg/ml. Ten minutes later 1.5 mg/ml cytochrome C was added followed immediately by wheat germ agglutinin (WGA) to a final concentration of 30 μg/ml (1). Supernatants were removed after 5 min. for determination of O2^- dismutase-inhibitable reduction of cytochrome C (2).

[6] = Expt. 1, dilution 1:40, coupled to BSA
[7] = Expt. 1, dilution 1:80, coupled to BSA
[8] = Expt. 2, dilution 1:40, coupled to BSA
[9] = Expt. 2, dilution 1:80, coupled to BSA

LQNRRGLDLLFLKEGGL [CKS-17]
% inhibition of Con A stimulated proliferation ([1]; Expt. 1, dilution 1:10): 88%
^3H-TdR incorporation, CPM ± SD of quadruplicate samples ([1]; Expt. 1, dilution 1:10): 11,170 ± 3572 CPM
% inhibition of Con A stimulated proliferation ([1]; Expt. 1, dilution 1:20): 58%
^3H-TdR incorporation, CPM ± SD of quadruplicate samples ([1]; Expt. 1, dilution 1:20): 38,132 ± 11,989 CPM
% inhibition of Con A stimulated proliferation ([1]; Expt. 1, dilution 1:40): 58%
^3H-TdR incorporation, CPM ± SD of quadruplicate samples ([1]; Expt. 1, dilution 1:40): 38,085 ± 10,678 CPM
% inhibition of Con A stimulated proliferation ([1]; Expt. 1, dilution 1:80): 48%
^3H-TdR incorporation, CPM ± SD of quadruplicate samples ([1]; Expt. 1, dilution 1:80): 46,815 ± 601 CPM
% inhibition of Con A stimulated proliferation ([1]; Expt. 2, dilution 1:10): 66%
^3H-TdR incorporation, CPM ± SD of quadruplicate samples ([1]; Expt. 2, dilution 1:10): 34,601 ± 3914 CPM
% inhibition of Con A stimulated proliferation ([1]; Expt. 2, dilution 1:20): 38%
^3H-TdR incorporation, CPM ± SD of quadruplicate samples ([1]; Expt. 2, dilution 1:20): 62,445 ± 3602 CPM
% inhibition of Con A stimulated proliferation ([1]; Expt. 2, dilution 1:40): 17%
^3H-TdR incorporation, CPM ± SD of quadruplicate samples ([1]; Expt. 2, dilution 1:40): 83,154 ± 4422 CPM
% inhibition of Con A stimulated proliferation ([1]; Expt. 2, dilution 1:80): 5%
^3H-TdR incorporation, CPM ± SD of quadruplicate samples ([1]; Expt. 2, dilution 1:80): 95,395 ± 45 CPM
incorporation of ^3H-thymidine blocked ([1]; text: 1:20 dilution (ca. 7.5μM)): up to 88%
inhibition when peptide is added 24 hr. after the mitogen [2]: comparable levels of inhibition
average inhibition of human two-way MLC (mean±SEM) ([3]; dilution 1:20): 92±2
average inhibition of human two-way MLC (mean±SEM) ([3]; dilution 1:40): 64±11
average inhibition of human two-way MLC (mean±SEM) ([3]; dilution 1:80): 18±3
effect upon ^3H-thymidine incorporation (NIH/3T3 fibroblasts): no effect
cell types bound [4]: binds to T4^+ and T8^+ lymphocytes, B cells, NK cells and phagocytes
inhibition of [^125 I]-CKS-17-BSA binding by excess unlabelled material (human lymphocytes): binding could be inhibited
effect upon ^3H-thymidine incorporation (Balb/3T3 fibroblasts): no effect
antibodies elicited by immunization of rabbits (Immunization of rabbits): elicited antibodies which react with free peptide and the native viral protein
average inhibition of murine MLC response (mean±SEM) ([5]; dilution 1:20): 94±2%
average inhibition of murine MLC response (mean±SEM) ([5]; dilution 1:30): 74±4%
average inhibition of murine MLC response (mean±SEM) ([5]; dilution 1:80): 48±9%
effect on five-day murine MLC reactions ([5]; five-day MLC): blocked
average inhibition of CTLL-2 cell proliferation (murine CTLL-2 cells; dilution 1:20, coupled to BSA): 49.6%
average inhibition of CTLL-2 cell proliferation (murine CTLL-2 cells; dilution 1:40, coupled to BSA): 22.0%
average inhibition of CTLL-2 cell proliferation (murine CTLL-2 cells; dilution 1:80, coupled to BSA): 9.4%
short term toxic effect, trypan blue dye exclusion (murine CTLL-2 cells; CTLL-2 cells, coupled to BSA): not due to either a short term toxic effect
% inhibition of CTLL-2 proliferation (murine CTLL-2 cells; Expt. 1, dilution 1:20 (ca. 7.3 μM), coupled to BSA): 76%
^3H-TdR incorporation, CPM ± SD of quadruplicate samples (murine CTLL-2 cells; Expt. 1, dilution 1:20, coupled to BSA): 15,255 ± 277 CPM
% inhibition of CTLL-2 proliferation (murine CTLL-2 cells; [6]): 34%
^3H-TdR incorporation, CPM ± SD of quadruplicate samples (murine CTLL-2 cells; [6]): 42,827 ± 1386 CPM
% inhibition of CTLL-2 proliferation (murine CTLL-2 cells; [7]): 7%
^3H-TdR incorporation, CPM ± SD of quadruplicate samples (murine CTLL-2 cells; [7]): 60,005 ± 1425 CPM
% inhibition of CTLL-2 proliferation (murine CTLL-2 cells; Expt. 2, dilution 1:20 (ca. 7.3 μM), coupled to BSA): 64%
^3H-TdR incorporation, CPM ± SD of quadruplicate samples (murine CTLL-2 cells; Expt. 2, dilution 1:20, coupled to BSA): 10,950 ± 2171 CPM
% inhibition of CTLL-2 proliferation (murine CTLL-2 cells; [8]): 24%
^3H-TdR incorporation, CPM ± SD of quadruplicate samples (murine CTLL-2 cells; [8]): 23,128 ± 3288 CPM
% inhibition of CTLL-2 proliferation (murine CTLL-2 cells; [9]): 1%
^3H-TdR incorporation, CPM ± SD of quadruplicate samples (murine CTLL-2 cells; [9]): 29,980 ± 3490 CPM
incubation required for maximal inhibition of CTLL-2 cell proliferation (murine CTLL-2 cells; ca. 15 μM, coupled to BSA): 16 h
reversal of inhibition by increasing the concentration of IL-2 twenty-fold (murine CTLL-2 cells; coupled to BSA): could not be reversed
effect upon the CTLL-2 cells (murine CTLL-2 cells; free (unconjugated) peptide): no effect
O2^- Release (human monocytes; dilution 1:20): 6.0 ± 0.5 nmoles/5 minues/1.2 × 10^6 mon
O2^- Release (human monocytes; dilution 1:40): 8.3 ± 0.5 nmoles/5 minues/1.2 × 10^6 mon
